This note sets out measurements from patent publication US11414402B2, “Sulfonamide-substituted cyanopyrrolidines with activity as DUB inhibitors” (MISSION THERAPEUTICS LIMITED, priority 2017, dated 2022).

Molecules are shown by their SMILES. pIC50: −log10 of the molar value. Like-named read-outs stand apart in the source and are kept apart here.

Assay [1] has as its target UCHL1 (Homo sapiens (Human), UniProt P09936). Briefly: UCHL1 biochemical IC50 assay (fluorescence polarisation). As to the method: The UCHL1 construct was PCR amplified and cloned into a pFLAG-CMV-6a vector (Sigma-Aldrich) with an N-terminal FLAG tag. HEK293T cells were transfected with FLAG-UCHL1 using TransIT-LT1 transfection reagent (Mirus) according to the manufacturer's instructions. Cells were harvested 40 hours after transfection. […] The resin was washed two times with low salt buffer and one time with high salt buffer (20 mM Tris, pH 7.5, 500 mM NaCl, 0.5 mM EDTA, 5 mM beta-mercaptoethanol, protease inhibitors (complete mini, Roche) and phosphatase inhibitors (PhosSTOP mini, Roche). To elute the bound UCHL1, elution buffer (10 mM Tris, pH 7.5, 150 mM NaCl, 0.5 mM EDTA, 10% glycerol, 0.5% NP40, 5 mM beta-mercaptoethanol, 0.15 mg/ml 3× FLAG peptide (Sigma-Aldrich)) was added to the resin and incubated at 4° C. for 2.5 hours rotating. The resin was centrifuged at 4000 rpm for 30 seconds, and the supernatant containing purified FLAG-UCHL1 was removed and stored at −80° C.
UCHL1 was diluted in reaction buffer (20 mM Tris, pH 7.5, 100 mM NaCl, 0.05% Tween 20, 0.5 mg/ml BSA, 5 mM beta-mercaptoethanol) to the equivalent of 0, 0.01, 0.05, 0.1, 0.5, and 1 μl/well. Buffer was optimised for optimal temperature, pH, reducing agent, salts, time of incubation, and detergent. Reactions were initiated by the addition of 50 nM of TAMRA labelled peptide linked to ubiquitin via an iso-peptide bond as fluorescence polarisation substrate. Reactions were incubated at room temperature and read every 2 min for 120 min. Readings were performed on a Pherastar Plus (BMG Labtech). λ Excitation 540 nm; λ Emission 590 nm.
A typical 8-point dilution series to be 30, 10, 3, 1, 0.3, 0.1, 0.03, 0.01 μM final. […] Either 1 μl of 50% DMSO or diluted compound was added to the plate. UCHL1 was diluted in reaction buffer (20 mM Tris, pH 7.5, 100 mM NaCl, 0.05% Tween 20, 0.5 mg/ml BSA, 5 mM beta-mercaptoethanol) to the equivalent of 0.05 μl/well and 10 μl of diluted UCHL1 was added to the compound. Enzyme and compound were incubated for 30 min at room temp. Reactions were initiated by the addition of 50 nM of TAMRA labelled peptide linked to ubiquitin via an iso-peptide bond as fluorescence polarisation substrate. Reactions were read immediately after addition of substrate and following a 2-hour incubation at room temperature. Readings were performed on a Pherastar Plus (BMG Labtech). λ Excitation 540 nm; λ Emission 590 nm.

Assay [2] concerns the target USP30 (Homo sapiens (Human), UniProt Q70CQ3). Briefly: USP30 biochemical IC50 assay (fluorescence polarisation). How it is done: A typical 8-point dilution series would be 100, 30, 10, 3, 1, 0.3, 0.1, 0.03 μM final. […] Either 1 μl of 50% DMSO or diluted compound was added to the plate. USP30 was diluted in reaction buffer (40 mM Tris, pH 7.5, 0.005% Tween 20, 0.5 mg/ml BSA, 5 mM beta-mercaptoethanol) to the equivalent of 0.05 μl/well and 10 μl of diluted USP30 was added to the compound. Enzyme and compound were incubated for 30 min at room temp. Reactions were initiated by the addition of 50 nM of TAMRA labelled peptide linked to ubiquitin via an iso-peptide bond as fluorescence polarisation substrate. Reactions were read immediately after addition of substrate and following a 2-hour incubation at room temperature. Readings were performed on a Pherastar Plus (BMG Labtech). λ Excitation 540 nm; λ Emission 590 nm.
Background: Polarisation of emitted light reports the rotation of a fluorescent probe.

[3] abbreviates: FLAG-UCHL1, 30 min preincubation at room temp, TAMRA-peptide-ubiquitin substrate 50 nM, read after 2-hour incubation, read-out: IC50 range.
Setting [4] is: USP30 CD (57-517), 30 min preincubation at room temp, TAMRA-peptide-ubiquitin substrate 50 nM, read after 2-hour incubation, read-out: IC50 range.

UCHL1, sequence (P09936 whole entry): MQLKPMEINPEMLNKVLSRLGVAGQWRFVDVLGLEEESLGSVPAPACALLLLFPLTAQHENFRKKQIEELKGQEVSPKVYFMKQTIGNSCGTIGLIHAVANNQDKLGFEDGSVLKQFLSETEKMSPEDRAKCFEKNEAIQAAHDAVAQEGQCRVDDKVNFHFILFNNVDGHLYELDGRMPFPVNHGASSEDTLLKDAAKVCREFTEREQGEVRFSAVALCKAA
USP30, sequence (Q70CQ3 57-517): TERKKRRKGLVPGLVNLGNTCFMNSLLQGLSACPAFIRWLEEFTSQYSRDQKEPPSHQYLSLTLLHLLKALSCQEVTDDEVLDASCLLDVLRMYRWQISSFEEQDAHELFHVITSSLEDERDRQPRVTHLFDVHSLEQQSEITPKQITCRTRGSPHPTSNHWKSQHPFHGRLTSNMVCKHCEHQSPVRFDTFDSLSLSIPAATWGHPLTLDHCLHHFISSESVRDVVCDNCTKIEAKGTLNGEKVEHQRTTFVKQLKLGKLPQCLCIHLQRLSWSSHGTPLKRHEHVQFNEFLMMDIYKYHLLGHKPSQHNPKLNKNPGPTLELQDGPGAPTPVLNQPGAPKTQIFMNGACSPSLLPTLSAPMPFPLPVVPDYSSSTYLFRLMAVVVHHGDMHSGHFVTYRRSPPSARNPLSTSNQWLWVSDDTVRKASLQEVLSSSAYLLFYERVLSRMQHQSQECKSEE

`N#CN1CCC(NS(=O)(=O)c2ccc(-c3ccccc3)cn2)C1` (stereo not drawn) [Example 11, N-(1-cyanopyrrolidin-3-yl)-5-phenylpyridine-2-sulfonamide]: the pIC50 was 4.00 to 5.00 in assay [1] (setting [3]) and 6.00 to 7.00 in assay [2] (setting [4]). With `N#CN1CCC(S(=O)(=O)N2CC(Oc3ccccc3)C2)C1` (stereo not drawn) [Example 37, 3-((3-phenoxyazetidin-1-yl)sulfonyl)pyrrolidine-1-carbonitrile], the pIC50 in assay [2] (setting [4]) is 4.00 to 5.00. Turning to `N#CN1CCC(S(=O)(=O)N2CC(c3ccc(Cl)cc3)C2)C1` (stereo not drawn) [Example 34, 3-((3-(4-chlorophenyl)azetidin-1-yl)sulfonyl)pyrrolidine-1-carbonitrile], the pIC50 in assay [2] (setting [4]) was 6.00 to 7.00. As to `N#CN1CCC(NS(=O)(=O)c2ccccc2-c2ccccc2)C1` (stereo not drawn) [Example 1, N-(1-cyanopyrrolidin-3-yl)-[1,1′-biphenyl]-2-sulfonamide], the figures for the pIC50 in assay [1] (setting [3]) and in assay [2] (setting [4]) were 4.00 to 5.00 and 6.00 to 7.00, respectively. Regarding `N#CN1CCC(NS(=O)(=O)c2ccc(OCc3ccccc3)cc2)C1` (stereo not drawn) [Example 8], the pIC50 is 5.00 to 6.00 in assay [1] (setting [3]) and 6.00 to 7.00 in assay [2] (setting [4]). For `CN([C@@H]1CCN(C#N)C1)S(=O)(=O)c1ccc(-c2cccnc2)cc1` [Example 20, (R)—N-(1-cyanopyrrolidin-3-yl)-N-methyl-4-(pyridin-3-yl)benzenesulfonamide], in that order: 5.00 to 6.00 and 6.00 to 7.00. For `N#CN1CC[C@@H](NS(=O)(=O)c2ccc(-c3ccccc3)cc2)C1` [Example 3, (R)-N-(1-cyanopyrrolidin-3-yl)-[1,1′-biphenyl]-4-sulfonamide], in that order: 4.00 to 5.00 and 6.00 to 7.00.

As to `CN(C1CCN(C#N)C1)S(=O)(=O)c1ccc(Oc2ccc(C(F)(F)F)cn2)cc1` (stereo not drawn) [Example 25, N-(1-cyanopyrrolidin-3-yl)-N-methyl-4-((5-(trifluoromethyl)pyridin-2-yl)oxy)benzenesulfonamide], the pIC50 in assay [1] (setting [3]) is 5.00 to 6.00; in assay [2] (setting [4]) it was 6.00 to 7.00. As to `N#CN1CCC(S(=O)(=O)N2CCC(Cc3ccccc3)CC2)C1` (stereo not drawn) [Example 33, 3-((4-benzylpiperidin-1-yl)sulfonyl)pyrrolidine-1-carbonitrile], in assay [2] (setting [4]), the pIC50 is 6.00 to 7.00. Consider `Cn1nccc1C(=O)Nc1ccc(S(=O)(=O)NC2CCN(C#N)C2)cn1` (stereo not drawn) [Example 24, N-(5-(N-(1-cyanopyrrolidin-3-yl)sulfamoyl)pyridin-2-yl)-1-methyl-1H-pyrazole-5-carboxamide], for which the negative logarithm of the IC50 (pIC50) in assay [1] (setting [3]) was 4.00 to 5.00; in assay [2] (setting [4]), 6.00 to 7.00. For `N#CN1CC[C@H](NS(=O)(=O)c2ccc(-c3ccccc3)cc2)C1` [Example 4, (S)-N-(1-cyanopyrrolidin-3-yl)-[1,1′-biphenyl]-4-sulfonamide], in that order: 5.00 to 6.00 and 6.00 to 7.00.

As to `N#CN1CC[C@@H](NS(=O)(=O)c2ccccc2)C1` [Example 7, (R)-N-(1-cyanopyrrolidin-3-yl)benzenesulfonamide], the negative logarithm of the IC50 (pIC50) in assay [2] (setting [4]) is 5.00 to 6.00. With `N#CN1CCC(NS(=O)(=O)c2ccc(-c3ccc(F)cc3)cc2)C1` (stereo not drawn) [Example 12, N-(1-cyanopyrrolidin-3-yl)-4′-fluoro-[1,1′-biphenyl]-4-sulfonamide], in assay [1] (setting [3]), the pIC50 was 5.00 to 6.00. In the case of `N#CN1CCC(S(=O)(=O)Nc2ccc(-c3ccccc3)cc2)C1` (stereo not drawn) [Example 26, N-([1,1′-biphenyl]-4-yl)-1-cyanopyrrolidine-3-sulfonamide], the results for the pIC50 in assay [1] and in assay [2] were 4.00 to 5.00 and 6.00 to 7.00, respectively. With `N#CN1CC[C@H](S(=O)(=O)N2CC(c3ccc(Cl)cc3)C2)C1` [Example 35, (S)-3-((3-(4-chlorophenyl)azetidin-1-yl)sulfonyl)pyrrolidine-1-carbonitrile], the pIC50 in assay [2] (setting [4]) was 6.00 to 7.00. As for `N#CN1CCC(S(=O)(=O)N2CCN(c3ncccn3)CC2)C1` (stereo not drawn) [Example 29, 3-((4-(pyrimidin-2-yl)piperazin-1-yl)sulfonyl)pyrrolidine-1-carbonitrile], in assay [2] (setting [4]), the pIC50 is 5.00 to 6.00. Still for that read-out and setting: then `N#CN1CC[C@@H](S(=O)(=O)N2CC(c3ccc(Cl)cc3)C2)C1` [Example 36, (R)-3-((3-(4-chlorophenyl)azetidin-1-yl)sulfonyl)pyrrolidine-1-carbonitrile], with 6.00 to 7.00. Take `N#CN1CCC(NS(=O)(=O)c2ccc(N3CCCCC3)cc2)C1` (stereo not drawn) [Example 14, N-(1-cyanopyrrolidin-3-yl)-4-(piperidin-1-yl)benzenesulfonamide]: the pIC50 in assay [1] (setting [3]) was 4.00 to 5.00; in assay [2] (setting [4]) it was 6.00 to 7.00. Consider `N#CN1C[C@H]2CCN(S(=O)(=O)c3ccc(-c4cccnc4)cc3)[C@H]2C1` [Example 21, (3aR,6aR)-1-((4-(pyridin-3-yl)phenyl)sulfonyl)hexahydropyrrolo[3,4-b]pyrrole-5(1H)-carbonitrile], for which, in assay [2] (setting [4]), the pIC50 was 6.00 to 7.00. For the compound `N#CN1CCC(NS(=O)(=O)c2ccccc2)C1` (stereo not drawn) [Example 5, N-(1-cyanopyrrolidin-3-yl)benzenesulfonamide], the pIC50 in assay [1] (setting [3]) was 4.00 to 5.00. Turning to `Cc1ccc(S(=O)(=O)N2CCO[C@@H]3CN(C#N)C[C@H]32)cc1` (racemic) [Example 22, rac-(4aR,7aR)-4-tosylhexahydropyrrolo[3,4-b][1,4]oxazine-6(2H)-carbonitrile], in assay [2] (setting [4]), the pIC50 is 4.00 to 5.00. On to `Cc1ccc(F)cc1S(=O)(=O)NC1CCN(C#N)C1` (stereo not drawn) [Example 17, N-(1-cyanopyrrolidin-3-yl)-5-fluoro-2-methylbenzenesulfonamide], for which the pIC50 in assay [2] (setting [4]) was 5.00 to 6.00. On to `Cc1ccc(CS(=O)(=O)N2CCO[C@H]3CN(C#N)C[C@H]32)cc1` (racemic) [Example 23, rac-(4aR,7aS)-4-(4-methylbenzyl)sulfonyl)hexahydropyrrolo[3,4-b][1,4]oxazine-6(2H)-carbonitrile], for which, in assay [2] (setting [4]), the pIC50 was 6.00 to 7.00. Regarding `N#CN1CCC(NS(=O)(=O)c2ccc(Oc3ccccc3)nc2)C1` (stereo not drawn) [Example 16, N-(1-cyanopyrrolidin-3-yl)-6-phenoxypyridine-3-sulfonamide], the pIC50 in assay [1] (setting [3]) is 4.00 to 5.00; in assay [2] (setting [4]), 6.00 to 7.00. Regarding `N#CN1CCC(S(=O)(=O)N2CCN(c3ccccn3)CC2)C1` (stereo not drawn) [Example 28], in assay [2] (setting [4]), the pIC50 was 6.00 to 7.00. Turning to `Cn1cc(-c2ccc(S(=O)(=O)NC3CCN(C#N)C3)cc2)cn1` (stereo not drawn) [Example 15, N-(1-cyanopyrrolidin-3-yl)-4-(1-methyl-1H-pyrazol-4-yl)benzenesulfonamide], the results for the pIC50 in assay [1] (setting [3]) and in assay [2] (setting [4]) were 5.00 to 6.00 and 6.00 to 7.00, respectively.

Regarding `CC(C)c1ccc(S(=O)(=O)NC2CCN(C#N)C2)cc1` (stereo not drawn) [Example 18, N-(1-cyanopyrrolidin-3-yl)-4-isopropylbenzenesulfonamide], the values for the pIC50 in assay [1] (setting [3]) and in assay [2] (setting [4]) were 4.00 to 5.00 and 5.00 to 6.00, respectively. For `N#CN1CCC(NS(=O)(=O)c2ccc(-c3ccncc3)cc2)C1` (stereo not drawn) [Example 13, N-(1-cyanopyrrolidin-3-yl)-4-(pyridin-4-yl)benzenesulfonamide], in that order: 5.00 to 6.00 and 6.00 to 7.00. On to `N#CN1CCC(S(=O)(=O)N2CCN(c3ccc(F)cc3)CC2)C1` (stereo not drawn) [Example 27, 3-((4-(4-fluorophenyl)piperazin-1-yl)sulfonyl)pyrrolidine-1-carbonitrile], for which, in assay [2] (setting [4]), the pIC50 is 4.00 to 5.00. For `N#CN1CCC(S(=O)(=O)N2CCC(c3ccc(Cl)cc3)CC2)C1` (stereo not drawn) [Example 30, 3-((4-(4-chlorophenyl)piperidin-1-yl)sulfonyl)pyrrolidine-1-carbonitrile], in assay [2] (setting [4]), the pIC50 was more than 7.00. Same read-out and setting: then `CN1CCN(c2ccc(S(=O)(=O)NC3CCN(C#N)C3)cc2)CC1` (stereo not drawn) [Example 10, N-(1-cyanopyrrolidin-3-yl)-4-(4-methylpiperazin-1-yl)benzenesulfonamide], with 5.00 to 6.00.

Broadly, the pIC50 is the negative decadic logarithm of the IC50, by convention in mol/L.
